Results: patent publication US11111245B2, “Derivatives of N-cycloalkyl/heterocycloalkyl-4-(imidazo[1,2-a]pyridine)pyrimidin-2-amine as therapeutic agents” (Aucentra Therapeutics Pty Ltd, priority 2017, dated 2021)

What was measured:
CDK9/T1 = CDK9/T1 (Homo sapiens, UniProt P50750); test: ADP Glo Kinase assay CDK9/T1; format: biochemical; settings: CDK9T1; read-out: CDK inhibition, Ki (μM) CDK9T1
Summary of the method: (§1)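 Other CDKs and further kinases were profiled externally by radiometric assay. In-house ADP Glo assays covered CDK4/D1 and CDK6/D3 (RB-CTF substrate, pH 7.5 Tris buffer with MgCl2, DTT, BSA) and CDK9/T1 (RBER-IRStide substrate), 40 min at 37° C.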

CDK4/D1 = CDK4/D1 (Homo sapiens, UniProt P11802); test: ADP Glo Kinase assay CDK4/D1; format: biochemical; settings: CDK4D1; for remaining activity at 10 µM: compound at 10 μM, read-out: residual activity (%) at 10 μM CDK4D1; for Ki: read-out: CDK inhibition, Ki (μM) CDK4D1
CDK4/D1, sequence (P11802 whole entry): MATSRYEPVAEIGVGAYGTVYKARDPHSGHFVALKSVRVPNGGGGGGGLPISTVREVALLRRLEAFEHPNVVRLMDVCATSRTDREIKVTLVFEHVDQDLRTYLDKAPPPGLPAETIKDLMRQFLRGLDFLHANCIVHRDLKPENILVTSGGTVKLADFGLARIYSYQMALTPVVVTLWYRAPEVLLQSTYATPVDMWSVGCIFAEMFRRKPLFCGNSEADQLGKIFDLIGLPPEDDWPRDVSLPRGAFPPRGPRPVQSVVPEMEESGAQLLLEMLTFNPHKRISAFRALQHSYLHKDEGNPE
CDK4/D1, sequence (P24385 whole entry partner): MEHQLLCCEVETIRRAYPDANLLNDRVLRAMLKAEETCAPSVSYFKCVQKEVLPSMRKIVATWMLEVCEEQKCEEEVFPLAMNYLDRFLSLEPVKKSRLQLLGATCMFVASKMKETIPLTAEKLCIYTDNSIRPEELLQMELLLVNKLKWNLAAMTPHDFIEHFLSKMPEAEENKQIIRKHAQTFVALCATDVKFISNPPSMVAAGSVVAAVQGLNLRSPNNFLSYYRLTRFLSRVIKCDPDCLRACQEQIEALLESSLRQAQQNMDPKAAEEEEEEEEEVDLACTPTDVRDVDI
Summary of the method: (§2)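 In-house ADP-Glo assay: CDK4/D1 or CDK6/D3 with RB-CTF substrate in […] Tris pH 7.5, 20 mM MgCl2, 0.4 mM DTT, 0.1 mg/ml BSA; ATP-started, 40 min at 37° C.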

CDKs and other kinases [1] = target: T1, CDKs and other kinases (Homo sapiens, UniProt P50613); test: Radiometric kinase assay (Eurofins Pharma Discovery or Reaction Biology Corporation Kinase Profiler); format: biochemical; settings: CDK7H; for remaining activity at 10 µM: compound at 10 μM, read-out: residual activity (%) at 10 μM CDK7H; for Ki: read-out: CDK inhibition, Ki (μM) CDK7H
T1 construct: other: CDK7H; residual activity (%) at 10 μM CDK7H; compound at 10 μM
T1 sequence (P50613 whole entry): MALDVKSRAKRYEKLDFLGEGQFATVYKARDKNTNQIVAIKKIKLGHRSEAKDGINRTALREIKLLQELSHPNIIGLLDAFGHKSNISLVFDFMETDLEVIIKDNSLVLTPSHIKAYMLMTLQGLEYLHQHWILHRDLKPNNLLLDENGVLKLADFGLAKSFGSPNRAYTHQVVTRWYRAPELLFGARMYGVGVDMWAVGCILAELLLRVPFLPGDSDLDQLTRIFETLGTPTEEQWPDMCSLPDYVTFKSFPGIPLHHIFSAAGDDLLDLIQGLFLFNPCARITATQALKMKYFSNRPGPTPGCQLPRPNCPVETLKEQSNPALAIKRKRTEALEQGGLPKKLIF
Summary of the method: as §1

CDKs and other kinases [2] = target: T2, CDKs and other kinases (Homo sapiens, UniProt P24941); test: as above; format: biochemical; settings: CDK2A; for remaining activity at 10 µM: compound at 10 μM, read-out: residual activity (%) at 10 μM CDK2A; for Ki: read-out: CDK inhibition, Ki (μM) CDK2A
T2 construct: other: CDK2A; residual activity (%) at 10 μM CDK2A; compound at 10 μM
Summary of the method: as §1

CDKs and other kinases [3] = target: T3, CDKs and other kinases (Homo sapiens, UniProt P06493); test: as above; format: biochemical; settings: CDK1B; for remaining activity at 10 µM: compound at 10 μM, read-out: residual activity (%) at 10 μM CDK1B; for Ki: read-out: CDK inhibition, Ki (μM) CDK1B
T3 construct: other: CDK1B; residual activity (%) at 10 μM CDK1B; compound at 10 μM
T3 sequence (P06493 whole entry): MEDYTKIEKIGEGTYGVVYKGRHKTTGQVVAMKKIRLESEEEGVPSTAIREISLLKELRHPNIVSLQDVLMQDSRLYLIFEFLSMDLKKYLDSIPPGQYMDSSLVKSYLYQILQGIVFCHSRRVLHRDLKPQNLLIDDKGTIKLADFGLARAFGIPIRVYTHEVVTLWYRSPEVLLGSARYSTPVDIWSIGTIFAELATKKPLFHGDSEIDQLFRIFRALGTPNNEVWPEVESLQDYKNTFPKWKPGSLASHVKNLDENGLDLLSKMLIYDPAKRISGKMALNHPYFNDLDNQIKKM
Summary of the method: as §1

CDK6/D3 = CDK6/D3 (Homo sapiens, UniProt Q00534); test: ADP Glo Kinase assay CDK6/D3; format: biochemical; settings: CDK6D3; for remaining activity at 10 µM: compound at 10 μM, read-out: residual activity (%) at 10 μM CDK6D3; for Ki: read-out: CDK inhibition, Ki (μM) CDK6D3
CDK6/D3, sequence (Q00534 whole entry): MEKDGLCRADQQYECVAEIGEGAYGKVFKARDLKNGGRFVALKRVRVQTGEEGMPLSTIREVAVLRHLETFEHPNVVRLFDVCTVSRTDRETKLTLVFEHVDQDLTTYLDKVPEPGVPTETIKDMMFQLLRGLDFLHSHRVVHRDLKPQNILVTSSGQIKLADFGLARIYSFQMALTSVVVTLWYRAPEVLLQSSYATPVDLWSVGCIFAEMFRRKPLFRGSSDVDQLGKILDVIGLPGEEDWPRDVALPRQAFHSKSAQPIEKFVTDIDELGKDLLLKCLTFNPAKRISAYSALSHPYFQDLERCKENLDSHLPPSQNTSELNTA
CDK6/D3, sequence (P30281 whole entry partner): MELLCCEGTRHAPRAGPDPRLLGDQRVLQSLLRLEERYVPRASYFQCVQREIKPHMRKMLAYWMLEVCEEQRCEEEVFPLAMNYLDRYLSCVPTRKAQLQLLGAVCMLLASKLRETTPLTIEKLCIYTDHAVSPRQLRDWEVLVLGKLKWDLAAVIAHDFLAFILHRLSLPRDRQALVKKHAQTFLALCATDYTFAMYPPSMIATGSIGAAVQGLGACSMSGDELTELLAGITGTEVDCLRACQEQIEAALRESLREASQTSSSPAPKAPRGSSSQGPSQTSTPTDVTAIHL
Summary of the method: as §2

leukemia cell lines = test: Resazurin cell viability assay on leukemia cell lines (72 h growth inhibition, GI50); format: cell-based; settings: Homo sapiens, MV4-11 cells
Summary of the method: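 MTT assay for solid tumour lines and resazurin assay for leukaemia lines, run by reported methods. GI50, the concentration giving 50% growth inhibition, was obtained by non-linear regression.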

CDK9/T1, sequence (P50750 whole entry): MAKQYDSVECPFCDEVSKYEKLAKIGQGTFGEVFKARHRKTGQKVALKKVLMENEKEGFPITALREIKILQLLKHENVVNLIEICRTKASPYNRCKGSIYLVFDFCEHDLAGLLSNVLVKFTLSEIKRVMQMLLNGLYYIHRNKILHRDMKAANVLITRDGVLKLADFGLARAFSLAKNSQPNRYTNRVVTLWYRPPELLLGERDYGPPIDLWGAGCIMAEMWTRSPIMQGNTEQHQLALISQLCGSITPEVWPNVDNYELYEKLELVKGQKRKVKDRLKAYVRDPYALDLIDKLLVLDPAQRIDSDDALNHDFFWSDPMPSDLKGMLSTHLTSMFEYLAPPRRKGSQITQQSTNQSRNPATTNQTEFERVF
CDK9/T1, sequence (O60563 whole entry partner): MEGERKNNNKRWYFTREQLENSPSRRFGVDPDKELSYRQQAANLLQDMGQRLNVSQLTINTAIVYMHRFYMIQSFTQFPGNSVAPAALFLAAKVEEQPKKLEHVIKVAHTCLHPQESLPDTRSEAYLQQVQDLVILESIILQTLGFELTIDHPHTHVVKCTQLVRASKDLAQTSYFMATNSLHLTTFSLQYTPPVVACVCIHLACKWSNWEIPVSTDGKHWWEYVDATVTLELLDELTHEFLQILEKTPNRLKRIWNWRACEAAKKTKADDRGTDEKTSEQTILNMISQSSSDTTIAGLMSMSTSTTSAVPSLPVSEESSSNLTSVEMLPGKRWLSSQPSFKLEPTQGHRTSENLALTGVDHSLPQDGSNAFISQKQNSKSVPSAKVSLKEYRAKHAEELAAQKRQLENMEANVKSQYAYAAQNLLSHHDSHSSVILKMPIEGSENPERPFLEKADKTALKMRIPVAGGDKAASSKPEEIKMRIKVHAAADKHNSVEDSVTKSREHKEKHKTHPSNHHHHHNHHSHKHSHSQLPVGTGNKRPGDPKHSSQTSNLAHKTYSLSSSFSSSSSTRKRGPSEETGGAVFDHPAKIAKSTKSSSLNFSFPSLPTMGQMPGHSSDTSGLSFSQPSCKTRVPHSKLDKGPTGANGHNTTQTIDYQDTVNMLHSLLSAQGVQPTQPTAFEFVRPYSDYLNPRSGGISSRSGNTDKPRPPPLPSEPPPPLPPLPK

| Ki (CDK9/T1) [µM] | remaining activity at 10 µM (CDK4/D1) [%] | remaining activity at 10 µM (CDKs and other kinases [1]) [%] | remaining activity at 10 µM (CDKs and other kinases [2]) [%] | remaining activity at 10 µM (CDKs and other kinases [3]) [%] | remaining activity at 10 µM (CDK6/D3) [%] | GI50 (leukemia cell lines) [µM] | Ki (CDKs and other kinases [1]) [µM] | Ki (CDKs and other kinases [2]) [µM] | Ki (CDKs and other kinases [3]) [µM] | residual activity at 10 µM (CDK4/D1) [%] | residual activity at 10 µM (CDKs and other kinases [2]) [%] | Ki (CDK4/D1) [µM] | Ki (CDK6/D3) [µM] | SMILES |
| --- | --- | --- | --- | --- | --- | --- | --- | --- | --- | --- | --- | --- | --- | --- |
| 0.003 | 4 | 1 | 2 | 3 | 4 | < 0.001 |  |  |  |  |  |  |  | N[C@H]1CC[C@H](Nc2ncc(F)c(-c3cnc4ccc(Nc5cccc(F)c5)cn34)n2)CC1 [Compound 25, (1r,4r)-N^1-(5-Fluoro-4-(6-((3-fluorophenyl)amino)imidazo[1,2-a]pyridin-3-yl)pyrimidin-2-yl) cyclohexane-1,4-diamine] |
| 0.003 | 9 | 0 | 5 | 7 | 24 | < 0.001 |  |  |  |  |  |  |  | N[C@H]1CC[C@H](Nc2ncc(F)c(-c3cnc4ccc(-c5cccnc5)cn34)n2)CC1 [Compound 26, (1r,4r)-N^1-(5-Fluoro-4-(6-(pyridin-3-yl)imidazo[1,2-a]pyridin-3-yl)pyrimidin-2-yl)cyclohexane-1,4-diamine] |
| 0.003 | 4 | 2 | 4 | -1 | 15 | < 0.001 |  |  |  |  |  |  |  | N[C@H]1CC[C@H](Nc2ncc(F)c(-c3cnc4ccc(-c5ncccc5F)cn34)n2)CC1 [Compound 27, (1r,4r)-N^1-(5-Fluoro-4-(6-(3-fluoropyridin-2-yl)imidazo [1,2-a]pyridin-3-yl)pyrimidin-2-yl)cyclohexane-1,4-diamine] |
| 0.85 | 95 | 2 | 8 | 4 | 100 | 0.042 ± 0.017 |  |  |  |  |  |  |  | Fc1cnc(N[C@H]2CC[C@H](Nc3ccccn3)CC2)nc1-c1cnc2ccc(-c3ccccc3)cn12 [Compound 28, (1r,4r)-N^1-(5-Fluoro-4-(6-phenylimidazo[1,2-a]pyridin-3-yl)pyrimidin-2-yl)-N4-(pyridin-2-yl)cyclohexane-1,4-diamine] |
| 0.051 | 17 |  |  |  | 45 | 0.101 ± 0.039 | 2.73 | 1.83 | 3.57 |  |  |  |  | Cc1cnc(N[C@H]2CC[C@H](N)CC2)nc1-c1cnc2ccc(-c3cccnc3)cn12 [Compound 29, (1r,4r)-N^1-(5-Methyl-4-(6-(pyridin-3-yl)imidazo[1,2-a]pyridin-3-yl)pyrimidin-2-yl)cyclohexane-1,4-diamine] |
| 0.12 | 17 | 13 | 49 | 67 | 39 | 0.017 ± 0.006 |  |  |  |  |  |  |  | Cc1cnc(N[C@H]2CC[C@H](N)CC2)nc1-c1cnc2ccc(-c3ncccc3F)cn12 [Compound 30, (1r,4r)-N^1-(4-(6-(3-Fluoropyridin-2-yl)imidazo[1,2-a]pyridin-3-yl)-5-methylpyrimidin-2-yl)cyclohexane-1,4-diamine] |
| 0.018 |  | 13 |  | 32 | 11 | 0.005 ± 0.002 |  |  |  | 45 | 145 |  |  | Cc1cnc(N[C@H]2CC[C@H](N)CC2)nc1-c1cnc2ccc(Nc3ccccc3)cn12 [Compound 31, (1r,4r)-N^1-(5-Methyl-4-(6-(phenylamino)imidazo[1,2-a]pyridin-3-yl)pyrimidin-2-yl)cyclohexane-1,4-diamine] |
| 0.094 | 16 |  |  |  | 36 | 0.066 ± 0.014 | 5.39 | 0.63 | > 10 |  |  |  |  | Cc1cnc(N[C@H]2CC[C@H](N)CC2)nc1-c1cnc2ccc(NCc3ccc(F)cc3)cn12 [Compound 32, (1r,4r)-N^1-(4-(6-((4-Fluorobenzyl)amino)imidazo[1,2-a]pyridin-3-yl)-5-methylpyrimidin-2-yl)cyclohexane-1,4-diamine] |
| 0.022 | 7 | 7 | 13 | 11 | 12 | 0.004 ± 0.001 |  |  |  |  |  |  |  | Fc1cnc(N[C@H]2CC[C@H](NC3CCOCC3)CC2)nc1-c1cnc2ccccn12 [Compound 33, (1r,4r)-N^1-(5-Fluoro-4-(imidazo[1,2-a]pyridin-3-yl)pyrimidin-2-yl)-N4-(tetrahydro-2H-pyran-4-yl) cyclohexane-1,4-diamine] |
| 0.005 |  |  |  |  |  | 0.095 ± 0.031 | 2.24 | 0.09 | 2.16 |  |  | 2.8 | 1.05 | Cc1cnc(N[C@H]2CC[C@H](N)CC2)nc1-c1cnc2ccc(Nc3cccnc3)cn12 [Compound 34, (1r,4r)-N^1-(5-Methyl-4-(6-(pyridin-3-ylamino)imidazo [1,2-a]pyridin-3-yl)pyrimidin-2-yl)cyclohexane-1,4-diamine] |
| 0.007 |  |  |  |  |  | 0.011 ± 0.002 | 0.27 | 0.26 | 0.88 |  |  | 0.79 | 0.394 | N[C@H]1CC[C@H](Nc2ncc(Cl)c(-c3cnc4ccc(-c5cccnc5)cn34)n2)CC1 [Compound 35, (1r,4r)-N^1-(5-Chloro-4-(6-(pyridin-3-yl)imidazo[1,2-a]pyridin-3-yl)pyrimidin-2-yl)cyclohexane-1,4-diamine] |
| 0.016 | 4 |  |  |  | 48 | 0.004 ± 0.001 | 0.094 | 0.016 | 0.065 |  |  |  |  | N[C@H]1CC[C@H](Nc2ncc(Cl)c(-c3cnc4ccc(-c5ccncc5)cn34)n2)CC1 [Compound 36, (1r,4r)-N^1-(5-Chloro-4-(6-(pyridin-4-yl)imidazo[1,2-a]pyridin-3-yl)pyrimidin-2-yl)cyclohexane-1,4-diamine] |
| 0.12 | 7 |  |  |  | 96 | 0.013 ± 0.002 | 1.18 | 0.044 | 0.17 |  |  |  |  | Cc1cnc(N[C@H]2CC[C@H](N)CC2)nc1-c1cnc2ccc(-c3ccncc3)cn12 [Compound 37, (1r,4r)-N^1-(5-Methyl-4-(6-(pyridin-4-yl)imidazo[1,2-a]pyridin-3-yl)pyrimidin-2-yl)cyclohexane-1,4-diamine] |
| 0.065 | 0 |  |  |  | 80 | 0.052 ± 0.011 | 0.58 | 0.91 | 2.56 |  |  |  |  | N[C@H]1CC[C@H](Nc2ncc(Cl)c(-c3cnc4ccc(-c5cncnc5)cn34)n2)CC1 [Compound 38, (1r,4r)-N^1-(5-Chloro-4-(6-(pyrimidin-5-yl)imidazo[1,2-a]pyridin-3-yl)pyrimidin-2-yl)cyclohexane-1,4-diamine] |
| 0.165 | 36 |  |  |  | 100 | 0.082 ± 0.02 | 5.6 | 4.74 | 7.36 |  |  |  |  | Cc1cnc(N[C@H]2CC[C@H](N)CC2)nc1-c1cnc2ccc(-c3cncnc3)cn12 [Compound 39, (1r,4r)-N^1-(5-Methyl-4-(6-(pyrimidin-5-yl)imidazo[1,2-a]pyridin-3-yl)pyrimidin-2-yl)cyclohexane-1,4-diamine] |
| 0.014 | 30 |  |  |  | 72 | 0.005 ± 0.001 | 0.038 | 0.73 | 0.88 |  |  |  |  | N[C@H]1CC[C@H](Nc2ncc(Cl)c(-c3cnc4ccc(-c5ncccc5F)cn34)n2)CC1 [Compound 40, (1r,4r)-N^1-(5-Chloro-4-(6-(3-fluoropyridin-2-yl)imidazo [1,2-a]pyridin-3-yl)pyrimidin-2-yl)cyclohexane-1,4-diamine] |
